Experimental data published in US5298622A, “Spiroindane opiate analogs” (priority 1993, dated 1994).
pIC50: −log10 of the molar value. Non-standard residues stand in square brackets, D forms with d. Residues, ends and D or L forms follow the SMILES beside them. *: point of attachment. Tyr(Nα,Nα-allyl2) = C=CCN(CC=C)[C@@H](Cc1ccc(O)cc1)C(=O)*; Aib = CC(C)(N)C(=O)O

Tests used:
[1] = tested on: Guinea Pig Ileal Longitudinal Muscle (GPI), mu opioid receptor; assay: cells; assay type: cell-based
Procedure: (§1) 1. Guinea Pig Ileal Longitudinal Muscle (GPI). Ilea from guinea pigs were taken approximately 10 cm from the ileocecal junction, and a strip of longitudinal muscle with the myenteric plexus attached was prepared by the method of H. B. Rang et al., Brit. J. Pharmacol., 22, 356 (1964). A 1 cm portion of this strip was then mounted between two platinum electrodes placed in a 10 ml organ bath and connected to an isometric transducer; contractions were recorded on a polygraph. Contractions of the ileal strip were initiated by supramaximal rectangular pulses in all preparations (80 V of 0.5 ms duration at a frequency of 0.1 Hz). Krebs bicarbonate solution containing 1.25 μM chlorpheniramine maleate was the bathing solution and was continuously bubbled with 95% O2 and 5% CO2. The organ bath was maintained at 36°-37° C. The longitudinal muscle strip was allowed to equilibrate with continuous stimulation for a minimum of 90 min. Cumulative concentration-response curves were determined after drugs were added to the bath in 10- to 50-μl amounts and washed out with two 10 ml portions of buffer after noting their maximum effects.
(§2) Concentration-response curves were obtained in the absence (control) and the presence of the antagonist are expressed as IC50 values. The IC50 ratio represents the IC50 in the presence of the antagonist divided by the control IC50 value in the same tissue. Therefore, a high IC50 ratio represents a correspondingly high degree of antagonism at a particular receptor. This IC50 ratio was employed to calculate the Ke value using the equation Ke=[antagonist]/(IC50 ratio-1). Therefore, a low Ke represents a correspondingly high degree of binding at a particular receptor.

[2] = tested on: mouse vas deferens (MVD), delta opioid receptor; assay: Mouse vas deferens (MVD) assay, agonism; assay type: cell-based; settings: % Inhibition at 1000 nM (footnote 4); for inhibition at 1 µM: Mus musculus
Procedure: (§3) 2. Mouse Vas (MVD). This assay was performed according to the description by G. Henderson et al., Brit. J. Pharmacol., 46, 764 (1972). Both vasa deferentia were dissected out of mice and mounted singly through two platinum ring electrodes in a 10 ml organ bath. The bath contained Krebs bicarbonate solution that was continuously bubbled with 95% O2 and 5% CO2. The organ bath was maintained at 37° C. The tissue was attached to an isometric transducer and stimulated transmurally with rectangular pulses ([…], 1 ms duration, supramaximal voltage). Drugs were added cumulatively to the bath in 10- to 50-μl amounts and washed out after noting their maximum effect.
as §2

[3] = target: T1, mu opioid receptor (Cavia porcellus, UniProt A0ACM8Q262); assay: GPI assay, antagonism of morphine (mu); assay type: cell-based, guinea pig; settings: antagonist 100 nM, 15 min; for Kb: read-out: GPI Antagonism Ke (Morphine), Ke=[antagonist]/(IC50 ratio-1); for GPI Antagonism IC50 Ratio (Morphine): agonist morphine (mu)
T1 construct: antagonism of morphine
T1 sequence (A0ACM8Q262 1-400): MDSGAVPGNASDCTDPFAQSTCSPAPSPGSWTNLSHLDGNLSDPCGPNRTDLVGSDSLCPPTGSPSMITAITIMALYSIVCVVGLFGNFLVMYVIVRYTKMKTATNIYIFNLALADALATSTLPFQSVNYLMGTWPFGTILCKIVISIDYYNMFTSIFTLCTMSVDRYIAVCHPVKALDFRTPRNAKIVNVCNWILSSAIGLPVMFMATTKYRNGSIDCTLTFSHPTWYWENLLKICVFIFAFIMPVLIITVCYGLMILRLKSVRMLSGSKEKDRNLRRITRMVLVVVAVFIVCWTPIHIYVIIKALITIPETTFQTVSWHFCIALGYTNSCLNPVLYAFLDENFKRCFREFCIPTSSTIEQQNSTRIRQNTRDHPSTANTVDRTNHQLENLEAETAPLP
Procedure: as §1, §2

[4] = target: T2, delta opioid receptor (Mus musculus, UniProt P32300); assay: MVD assay, antagonism of DADLE (delta); assay type: cell-based; settings: for Kb: read-out: MVD Antagonism Ke (DADLE); for δ-antagonist activity (in words): δ-selective agonist; for MVD Antagonism IC50 Ratio (DADLE): antagonist 100 nM, 15 min, agonist DADLE (delta)
T2 construct: Both vasa deferentia were dissected out of mice; from tissue; host or cells: mouse vas deferens
T2 sequence (P32300 whole entry): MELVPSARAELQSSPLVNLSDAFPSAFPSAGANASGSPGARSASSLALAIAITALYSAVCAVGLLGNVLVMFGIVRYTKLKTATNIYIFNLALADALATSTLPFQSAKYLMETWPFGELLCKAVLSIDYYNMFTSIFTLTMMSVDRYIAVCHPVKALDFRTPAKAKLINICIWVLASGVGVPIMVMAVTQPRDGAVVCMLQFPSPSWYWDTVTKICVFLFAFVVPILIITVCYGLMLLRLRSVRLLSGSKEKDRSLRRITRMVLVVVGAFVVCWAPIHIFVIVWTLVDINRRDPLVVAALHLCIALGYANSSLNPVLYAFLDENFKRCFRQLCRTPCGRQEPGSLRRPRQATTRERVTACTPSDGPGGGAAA
Procedure: as §3, §2

[5] = target: T3, kappa opioid receptor (Cavia porcellus, UniProt P41144); assay: GPI assay, antagonism of ethylketazocine (EK, kappa); assay type: cell-based, guinea pig; settings: antagonist 100 nM, 15 min; agonist ethylketazocine (kappa)
T3 construct: a strip of longitudinal muscle with the myenteric plexus attached was prepared; from tissue; host or cells: guinea pig ileum, longitudinal muscle strip with myenteric plexus
T3 sequence (P41144 whole entry): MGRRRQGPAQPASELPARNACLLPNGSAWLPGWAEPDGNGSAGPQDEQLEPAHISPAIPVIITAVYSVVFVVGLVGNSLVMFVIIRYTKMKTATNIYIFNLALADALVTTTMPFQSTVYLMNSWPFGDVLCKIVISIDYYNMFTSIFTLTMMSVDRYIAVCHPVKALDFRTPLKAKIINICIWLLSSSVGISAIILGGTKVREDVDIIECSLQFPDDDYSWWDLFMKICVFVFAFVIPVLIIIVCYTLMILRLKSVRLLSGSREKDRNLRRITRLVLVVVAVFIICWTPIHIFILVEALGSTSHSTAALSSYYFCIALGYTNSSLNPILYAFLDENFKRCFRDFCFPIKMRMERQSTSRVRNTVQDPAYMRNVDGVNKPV
Procedure: as §1
Concentration-response curves were obtained in the absence (control) and the presence of the antagonist are expressed as IC50 values. The IC50 ratio represents the IC50 in the presence of the antagonist divided by the control IC50 value in the same tissue. […]

[6] = tested on: ethanol drinking; settings: J. C. Froehlich et al. 1991; cited from earlier work
[7] = tested on: rats selectively bred for high voluntary ethanol drinking; settings: Ser. No. 07/750,109; cited from earlier work
[8] = tested on: delta opioid receptor; settings: U.S. Pat. No. 4,816,586; cited from earlier work
[9] = tested on: rat model of alcoholism; settings: J. C. Froehlich et al. 1990; cited from earlier work
[10] = tested on: recovering alcoholics; settings: J. R. Volpicelli et al. 1990; cited from earlier work
[11] = GPI, % Inhibition at 1000 nM (footnote 4)

Molecule: 7-(4',5'-Benz-2'-spiroindano)naltrexone and 7-(6',7'-Benz-2'-spiroindano)naltrexone [Compound 3e]
- GPI Agonism % Inhibition [1, 11]: 20.3%
- MVD Agonism % Inhibition [2]: 15.6%

Molecule: 7-(4,-Methoxy-2,-spiroindano)naltrexone and 7-(7' -Methoxy-2'-spiroindano)-naltrexone [Compound 3b]
- GPI Agonism % Inhibition [1, 11]: -15.0%
- MVD Agonism % Inhibition [2]: 23.1%
- Kb [3]: 13.4 nM

Molecule: 7-(5'-Methoxy-2'-spiroindano)naltrexone and 7-(6'-Methoxy-2'-spiroindano)naltrexone [Compound 3c]
- GPI Agonism % Inhibition [1, 11]: -8.8%
- MVD Agonism % Inhibition [2]: 10.5%

Molecule: O=C1[C@@H]2Oc3c(O)ccc4c3[C@@]23CCN(CC2CC2)[C@H](C4)[C@]3(O)CC12Cc1ccccc1C2 [Compound 3a]
- Kb [4]: 0.78 nM
- δ-antagonist activity (in words) [4]: potent δ-antagonist activity
- Kb [3]: 41 nM

Molecule: O=C1[C@@H]2Oc3c(O)ccc4c3[C@@]23CCN(CC2CC2)[C@H](C4)[C@]3(O)CC12Cc1cc3ccccc3cc1C2 [Compound 3d, 7-(5',6'-Benz-2'-spiroindano)naltrexone]
- agonist activity for μ-receptors (in words) [1]: potent agonist activity
- pIC50 ([1]; Cavia porcellus, read-out: GPI Agonism IC50): 6.60
- GPI Agonism Potency (relative to morphine) ([1]; GPI, morphine = 1): 0.47
- GPI Antagonism IC50 Ratio (EK) [5]: 0.18
- MVD Antagonism IC50 Ratio (DADLE) [4]: 428
- Kb [4]: 0.234 nM
- δ-antagonist activity (in words) [4]: most potent antagonist
- inhibition at 1 µM [2]: 15.4%
- GPI Antagonism IC50 Ratio (Morphine) [3]: 0.97

Molecule: O=C1[C@@H]2Oc3c(O)ccc4c3[C@@]23CCN(CC2CC2)[C@H](C4)[C@]3(O)CC12Cc1cccc3cccc(c13)C2 [Compound 3f, 7-(2',3'-Dihydro-2'-spiroperinaphtheno)naltrexone]
- inhibition at 1 µM ([1]; Cavia porcellus, GPI, % Inhibition at 1000 nM (footnote 4), read-out: GPI Agonism % Inhibition): 16%
- GPI Antagonism IC50 Ratio (EK) [5]: 0.39
- MVD Antagonism IC50 Ratio (DADLE) [4]: 8
- Kb [4]: 14.9 nM
- inhibition at 1 µM [2]: 13%
- GPI Antagonism IC50 Ratio (Morphine) [3]: 0.89

Molecule: C=CCN(CC=C)[C@@H](Cc1ccc(O)cc1)C(=O)NC(C)(C)C(=O)NC(C)(C)C(=O)N[C@@H](Cc1ccccc1)C(=O)N[C@@H](CC(C)C)C(=O)O [ICI 174864, N,N-diallyl-Tyr-Aib-Aib-Phe-Leu-OH] ({Tyr(Nα,Nα-allyl2)}-[Aib][Aib]FL-OH)
- duration of action [6]: very short duration of action
- ethanol drinking [6]: strongly inhibits ethanol drinking

Molecule: Oc1ccc2c3c1O[C@H]1c4oc5ccccc5c4C[C@@]4(O)[C@@H](C2)N(CC2CC2)CC[C@]314 [NTB]
- ethanol drinking and water intake [7]: unexpectedly prolonged suppression of ethanol drinking without altering water intake

Molecule: Oc1ccc2c3c1O[C@H]1c4[nH]c5ccccc5c4C[C@@]4(O)[C@@H](C2)N(CC2CC2)CC[C@]314 [NTI, naltrindole]
- selectivity and potency at delta receptors [8]: highly selective
- ethanol drinking and water intake [7]: unexpectedly prolonged suppression of ethanol drinking without altering water intake

Molecule: C=CCN1CC[C@]23c4c5ccc(O)c4O[C@H]2C(=O)CC[C@@]3(O)[C@H]1C5 [Naloxone]
- ethanol and water intake [9]: suppress ethanol but not water intake

Molecule: O=C1CC[C@@]2(O)[C@H]3Cc4ccc(O)c5c4[C@@]2(CCN3CC2CC2)[C@H]1O5 [naltrexone]
- incidence of relapse in recovering alcoholics [10]: reduce the incidence of relapse in recovering alcoholics
